Experimental data: patent publication US6987117B2, “Antidepressant azaheterocyclylmethyl derivatives of 1,4-dioxino[2,3-b]pyridine” (Wyeth, priority 2001, dated 2006)
Where a name gives a salt, the structure may show the parent alone.

Legend:
human 5-HT1A receptors = biological target: T1, human 5-HT1A receptors (Homo sapiens, UniProt P08908); experiment: [3H] 8-OHDPAT displacement, 5-HT1A receptor affinity; assay type: binding
T1 construct: expressed in transfected cells; host or cells: CHO cells (stably transfected)
T1 sequence (P08908 1-422): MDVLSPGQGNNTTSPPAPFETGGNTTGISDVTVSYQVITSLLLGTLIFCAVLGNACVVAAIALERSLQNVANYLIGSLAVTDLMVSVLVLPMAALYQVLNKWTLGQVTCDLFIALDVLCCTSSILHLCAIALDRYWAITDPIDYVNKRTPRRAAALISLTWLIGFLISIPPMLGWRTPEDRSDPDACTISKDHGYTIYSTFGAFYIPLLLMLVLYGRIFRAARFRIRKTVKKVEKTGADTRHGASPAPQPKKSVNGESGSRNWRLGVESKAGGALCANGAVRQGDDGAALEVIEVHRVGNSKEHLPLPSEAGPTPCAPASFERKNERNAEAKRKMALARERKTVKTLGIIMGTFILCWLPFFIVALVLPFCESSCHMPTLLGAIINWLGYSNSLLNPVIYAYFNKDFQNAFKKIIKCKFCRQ
From the text: High affinity for the serotonin 5-HT1A receptor was established by testing the claimed compound's ability to displace [^3H] 8-OHDPAT (dipropylaminotetralin) from the 5-HT1A serotonin receptor following a modification of the procedure of Hall et al., J. Neurochem. 44, 1685 (1985) which utilizes CHO cells stably transfected with human 5-HT1A receptors.

[1] = biological target: T2, cloned human 5-HT1A receptors (Homo sapiens, UniProt P08908); experiment: 35S-GTPγS binding assay, 5-HT1A antagonist activity; assay type: biochemical; settings: reversal of standard agonist 8-OHDPAT; for IC50: read-out: 5-HT1A Function IC50
T2 construct: expressed in transfected cells
T2 sequence (P08908 1-422): T1 sequence (P08908 1-422)
Procedure: Antagonist activity at 5-HT1A receptors was established by using a ^35S-GTPγS binding assay similar to that used by Lazareno and Birdsall (Br. J. Pharmacol. 109: 1120, 1993), in which the test compound's ability to affect the binding of ^35S-GTPγS to membranes containing cloned human 5-HT1A receptors was determined. Agonists produce an increase in binding whereas antagonists produce no increase but rather reverse the effects of the standard agonist 8-OHOPAT. The test compound's maximum inhibitory effect is represented as the Imax, while its potency is defined by the IC50.

serotonin transporter = biological target: T3, serotonin transporter (Rattus norvegicus, UniProt P31652); experiment: 3H-paroxetine displacement, serotonin transporter affinity; assay type: binding
T3 construct: displace ^3H-paroxetine from male rat frontal cortical membranes; from tissue; host or cells: male rat frontal cortex membranes
T3 sequence (P31652 whole entry): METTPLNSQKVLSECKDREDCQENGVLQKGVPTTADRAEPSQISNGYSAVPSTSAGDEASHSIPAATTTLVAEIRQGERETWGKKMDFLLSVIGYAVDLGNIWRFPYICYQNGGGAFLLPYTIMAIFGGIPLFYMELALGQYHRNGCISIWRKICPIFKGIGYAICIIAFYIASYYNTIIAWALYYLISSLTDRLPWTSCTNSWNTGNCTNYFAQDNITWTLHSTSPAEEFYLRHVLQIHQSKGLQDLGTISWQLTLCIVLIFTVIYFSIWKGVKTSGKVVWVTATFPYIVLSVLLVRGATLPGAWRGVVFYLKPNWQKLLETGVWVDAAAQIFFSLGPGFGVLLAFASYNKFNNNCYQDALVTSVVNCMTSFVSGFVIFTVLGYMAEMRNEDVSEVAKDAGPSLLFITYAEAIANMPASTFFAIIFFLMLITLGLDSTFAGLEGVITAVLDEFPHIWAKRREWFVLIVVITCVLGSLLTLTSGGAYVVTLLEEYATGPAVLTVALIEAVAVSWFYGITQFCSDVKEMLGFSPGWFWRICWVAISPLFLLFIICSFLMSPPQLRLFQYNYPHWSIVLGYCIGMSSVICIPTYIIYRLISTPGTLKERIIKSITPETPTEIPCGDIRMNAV

Row | SMILES | melting point | Ki (human 5-HT1A receptors) | 5-HT1A Function Imax (maximum inhibitory effect) [1] | IC50 [1] | Ki (serotonin transporter)
1 | N#Cc1ccc2[nH]cc(C3=CCN(CC4COc5cccnc5O4)CC3)c2c1 (centres unmarked) (as salt: oxalate) [Example 3, 3-{1-[2,3-Dihydro[1,4]dioxino[2,3-b]pyridin-3-ylmethyl]-1,2,3,6-tetrahydro-4-pyridinyl}-1H-indole-5-carbonitrile] | 165 °C |  |  |  | 
2 | Fc1ccc2c(C3=CCN(CC4COc5cccnc5O4)CC3)c[nH]c2c1 (centres unmarked) (as salt: oxalate) [Example 4, 3-{[4-(6-Fluoro-1H-indol-3-yl)-3,6-dihydro-1(2H)-pyridinyl]methyl}-2,3-dihydro[1,4]dioxino[2,3-b]pyridine] | 120 °C |  |  |  | 
3 | C1=C(c2c[nH]c3ccccc23)CCN(C[C@H]2COc3cccnc3O2)C1 (as salt: oxalate) [Example 1] | 116 °C |  |  |  | 
4 | N#Cc1ccc2[nH]cc(C3=CCN(CC4COc5cccnc5O4)CC3)c2c1 (centres unmarked) [Example 3, 3-{1-[2,3-Dihydro[1,4]dioxino[2,3-b]pyridin-3-ylmethyl]-1,2,3,6-tetrahydro-4-pyridinyl}-1H-indole-5-carbonitrile] |  | 22.4 nM | 100% | 183 nM | 2.58 nM
5 | Fc1ccc2c(C3=CCN(CC4COc5cccnc5O4)CC3)c[nH]c2c1 (centres unmarked) [Example 4, 3-{[4-(6-Fluoro-1H-indol-3-yl)-3,6-dihydro-1(2H)-pyridinyl]methyl}-2,3-dihydro[1,4]dioxino[2,3-b]pyridine] |  | 10.2 nM |  | 618 nM | 1.21 nM
6 | Fc1ccc2[nH]cc(C3=CCN(CC4COc5cccnc5O4)CC3)c2c1 (centres unmarked) [Example 2, 3-{[4-(5-Fluoro-1H-indol-3-yl)-3,6-dihydro-1(2H)-pyridinyl]methyl}-2,3-dihydro{1,4]dioxino[2,3-b]pyridine] |  | 6.81 nM |  | 57 nM | 2.39 nM
7 | Fc1ccc2[nH]cc(C3=CCN(CC4COc5cccnc5O4)CC3)c2c1 (centres unmarked) (as salt: oxalate) [Example 2, 3-{[4-(5-Fluoro-1H-indol-3-yl)-3,6-dihydro-1(2H)-pyridinyl]methyl}-2,3-dihydro{1,4]dioxino[2,3-b]pyridine] | 124 °C |  |  |  | 
8 | C1=C(c2c[nH]c3ccccc23)CCN(C[C@H]2COc3cccnc3O2)C1 [Example 1] |  | 14.3 nM |  | 197 nM | 9.5 nM
